In patent publication US5244661A, “Process for producing a polyene antibiotic” (Ajinomoto Company, Inc., priority 1989, dated 1993):
≈ marks a conversion by molar mass, not a printed value.

Tests used:
[1] = tested on: Candida albicans ATCC 10231; assay: minimum growth inhibitory concentration (MIC) against Candida albicans ATCC 10231; assay type: cell-based
[2] = tested on: Saccharomyces ubran ATCC 9080; assay: minimum growth inhibitory concentration (MIC) against Saccharomyces ubran ATCC 9080; assay type: cell-based; conditions: Table 3

Row | Compound | MIC ([1]; Table 3) | MIC [2] | minimum growth inhibitory concentration (MIC) ([1]; Example 7)
1 | CC1/C=C/C=C/C=C/C=C/C=C/C=C/C=C/C(O[C@H]2O[C@@H](C)[C@H](O)[C@@H](N)[C@H]2O)CC2OC(O)(CC(O)CC(O)CC(O)CC(O)CC(=O)CC(O)CC(=O)OC1C(C)CCC(O)CC(=O)c1ccc(N)cc1)CC(O)C2C(=O)O (stereo partly drawn) [Partricin B, partricin B] | 0.04 µg/mL (≈ 0.0359 µM) | 0.04 µg/mL (≈ 0.0359 µM) | 
2 | COC(=O)C1C(O)CC2(O)CC(O)CC(O)CC(O)CC(O)CC(=O)CC(O)CC(=O)OC(C(C)CCC(O)CC(=O)c3ccc(N)cc3)C(C)/C=C/C=C/C=C/C=C/C=C/C=C/C=C/C(O[C@H]3O[C@@H](C)[C@H](O)[C@@H](N)[C@H]3O)CC1O2 (stereo partly drawn) [partricin B methyl ester] |  |  | 0.52 µg/mL
